Reference: ChEMBL document CHEMBL1138549, “Synthesis of new 2-substituted pyrido[2,3-d]pyrimidin-4(1H)-ones and their antibacterial activity” (2009)
≈ marks a conversion by molar mass, not a printed value. Calls of active or inactive are those of the source. The calls are words filed in the database; no cut-off is given here.

Legend:
[1] = test system: Escherichia coli; assay: Antibacterial activity against Escherichia coli MTCC 722 after 24 hrs by NCCLS M7-A5 method; format: functional; details: MTCC 722, 24 h
[2] = test system: Aspergillus niger; assay: Antifungal activity against Aspergillus niger at 200 ug/ml; format: functional, organism-based
[3] = test system: Staphylococcus aureus; assay: Antibacterial activity against Staphylococcus aureus MTCC 96 after 24 hrs by NCCLS M7-A5 method; format: functional; details: MTCC 96, 24 h
[4] = test system: Candida albicans; assay: Antifungal activity against Candida albicans at 200 ug/ml; format: functional, organism-based
[5] = test system: Bacillus subtilis; assay: Antibacterial activity against Bacillus subtilis MTCC 441 after 24 hrs by NCCLS M7-A5 method; format: functional; details: MTCC 441, 24 h
[6] = test system: Klebsiella pneumoniae; assay: Antibacterial activity against Klebsiella pneumoniae MTCC 109 after 24 hrs by NCCLS M7-A5 method; format: functional; details: MTCC 109, 24 h
[7] = test system: MCF7; assay: Cytotoxicity against human MCF7 cells up to 150 ug/ml; format: functional, cell-based

Cc1cc(C)c2c(n1)NC(c1cc(C)c(O)c(C)c1)NC2=O (configuration not stated)
MIC [1]: 6.25 µg/mL (≈ 21 µM)
Activity [2]: inactive
MIC [3]: 3.25 µg/mL (≈ 10.9 µM)
Activity [4]: inactive
MIC [5]: 3.25 µg/mL (≈ 10.9 µM)
MIC [6]: 12.5 µg/mL (≈ 42 µM)
Activity [7]: Not toxic

COc1ccc(C2NC(=O)c3c(C)cc(C)nc3N2)c(OC)c1 (configuration not stated)
MIC [1]: 25 µg/mL (≈ 79.8 µM)
Activity [2]: inactive
MIC [3]: 12.5 µg/mL (≈ 39.9 µM)
Activity [4]: inactive
MIC [5]: 3.25 µg/mL (≈ 10.4 µM)
MIC [6]: 12.5 µg/mL (≈ 39.9 µM)
Activity [7]: Not toxic

Cc1cc(C)c2c(n1)NC(c1cccs1)NC2=O (configuration not stated)
MIC [1]: 12.5 µg/mL (≈ 48.2 µM)
Activity [2]: inactive
MIC [3]: 12.5 µg/mL (≈ 48.2 µM)
Activity [4]: inactive
MIC [5]: 6.25 µg/mL (≈ 24.1 µM)
MIC [6]: 25 µg/mL (≈ 96.4 µM)
Activity [7]: Not toxic

Cc1cc(C)c2c(=O)[nH]c(-c3ccccc3O)nc2n1
MIC [1]: 50 µg/mL (≈ 187 µM)
Activity [2]: inactive
MIC [3]: 50 µg/mL (≈ 187 µM)
Activity [4]: inactive
MIC [5]: 50 µg/mL (≈ 187 µM)
MIC [6]: 100 µg/mL (≈ 374 µM)
Activity [7]: Not toxic

Cc1cc(C)c2c(n1)NC(c1cccc(Cl)c1Cl)NC2=O (configuration not stated)
Activity [2]: inactive
MIC [3]: 50 µg/mL (≈ 155 µM)
Activity [4]: inactive
MIC [5]: 25 µg/mL (≈ 77.6 µM)
MIC [6]: 100 µg/mL (≈ 310 µM)
Activity [7]: Not toxic

Cc1cc(C)c2c(=O)[nH]c(-c3cccc(Cl)c3Cl)nc2n1
Activity [2]: inactive
MIC [3]: 100 µg/mL (≈ 312 µM)
Activity [4]: inactive
MIC [5]: 50 µg/mL (≈ 156 µM)
Activity [7]: Not toxic

COc1cc(C2NC(=O)c3c(C)cc(C)nc3N2)cc(OC)c1OC (configuration not stated)
MIC [1]: 3.25 µg/mL (≈ 9.46 µM)
Activity [2]: inactive
MIC [3]: 1.25 µg/mL (≈ 3.64 µM)
Activity [4]: inactive
MIC [5]: 3.25 µg/mL (≈ 9.46 µM)
MIC [6]: 1.25 µg/mL (≈ 3.64 µM)
Activity [7]: Not toxic

Cc1cc(C)c2c(n1)NC(c1ccco1)NC2=O (configuration not stated)
MIC [1]: 25 µg/mL (≈ 103 µM)
Activity [2]: inactive
MIC [3]: 12.5 µg/mL (≈ 51.4 µM)
Activity [4]: inactive
MIC [5]: 3.25 µg/mL (≈ 13.4 µM)
MIC [6]: 12.5 µg/mL (≈ 51.4 µM)
Activity [7]: Not toxic

COc1ccc(-c2nc3nc(C)cc(C)c3c(=O)[nH]2)cc1OC
MIC [1]: 12.5 µg/mL (≈ 40.1 µM)
Activity [2]: inactive
MIC [3]: 6.25 µg/mL (≈ 20.1 µM)
Activity [4]: inactive
MIC [5]: 6.25 µg/mL (≈ 20.1 µM)
MIC [6]: 12.5 µg/mL (≈ 40.1 µM)
Activity [7]: Not toxic

COc1ccc(-c2nc3nc(C)cc(C)c3c(=O)[nH]2)c(OC)c1
MIC [1]: 25 µg/mL (≈ 80.3 µM)
Activity [2]: inactive
MIC [3]: 25 µg/mL (≈ 80.3 µM)
Activity [4]: inactive
MIC [5]: 12.5 µg/mL (≈ 40.1 µM)
MIC [6]: 50 µg/mL (≈ 161 µM)
Activity [7]: Not toxic

COc1cc(C2NC(=O)c3c(C)cc(C)nc3N2)ccc1O (configuration not stated)
MIC [1]: 50 µg/mL (≈ 167 µM)
Activity [2]: inactive
MIC [3]: 1.25 µg/mL (≈ 4.18 µM)
Activity [4]: inactive
MIC [5]: 12.5 µg/mL (≈ 41.8 µM)
MIC [6]: 50 µg/mL (≈ 167 µM)
Activity [7]: Not toxic

COc1ccc(C2NC(=O)c3c(C)cc(C)nc3N2)c(O)c1 (configuration not stated)
MIC [1]: 50 µg/mL (≈ 167 µM)
Activity [2]: inactive
MIC [3]: 25 µg/mL (≈ 83.5 µM)
Activity [4]: inactive
MIC [5]: 25 µg/mL (≈ 83.5 µM)
MIC [6]: 25 µg/mL (≈ 83.5 µM)
Activity [7]: Not toxic

COc1ccc(-c2nc3nc(C)cc(C)c3c(=O)[nH]2)c(O)c1
MIC [1]: 50 µg/mL (≈ 168 µM)
Activity [2]: inactive
MIC [3]: 50 µg/mL (≈ 168 µM)
Activity [4]: inactive
MIC [5]: 50 µg/mL (≈ 168 µM)
MIC [6]: 50 µg/mL (≈ 168 µM)
Activity [7]: Not toxic

COc1cc(-c2nc3nc(C)cc(C)c3c(=O)[nH]2)ccc1O
MIC [1]: 50 µg/mL (≈ 168 µM)
Activity [2]: inactive
MIC [3]: 12.5 µg/mL (≈ 42 µM)
Activity [4]: inactive
MIC [5]: 25 µg/mL (≈ 84.1 µM)
MIC [6]: 50 µg/mL (≈ 168 µM)
Activity [7]: Not toxic

CC(=O)Oc1ccc(C2NC(=O)c3c(C)cc(C)nc3N2)cc1 (configuration not stated)
MIC [1]: 25 µg/mL (≈ 80.3 µM)
Activity [2]: inactive
MIC [3]: 12.5 µg/mL (≈ 40.1 µM)
Activity [4]: inactive
MIC [5]: 6.25 µg/mL (≈ 20.1 µM)
MIC [6]: 50 µg/mL (≈ 161 µM)
Activity [7]: Not toxic

Cc1cc(C)c2c(=O)[nH]c(-c3ccco3)nc2n1
MIC [1]: 25 µg/mL (≈ 104 µM)
Activity [2]: inactive
MIC [3]: 25 µg/mL (≈ 104 µM)
Activity [4]: inactive
MIC [5]: 12.5 µg/mL (≈ 51.8 µM)
MIC [6]: 50 µg/mL (≈ 207 µM)
Activity [7]: Not toxic

O=C(O)c1cn(C2CC2)c2cc(N3CCNCC3)c(F)cc2c1=O [CIPROFLOXACIN]
MIC [3]: 0.39 µg/mL (≈ 1.18 µM)
MIC [5]: 0.78 µg/mL (≈ 2.35 µM)
MIC [6]: 0.78 µg/mL (≈ 2.35 µM)

COc1cc(-c2nc3nc(C)cc(C)c3c(=O)[nH]2)cc(OC)c1OC
MIC [1]: 25 µg/mL (≈ 73.2 µM)
Activity [2]: inactive
MIC [3]: 6.25 µg/mL (≈ 18.3 µM)
Activity [4]: inactive
MIC [5]: 12.5 µg/mL (≈ 36.6 µM)
MIC [6]: 6.25 µg/mL (≈ 18.3 µM)
Activity [7]: Not toxic

COc1ccc(-c2nc3nc(C)cc(C)c3c(=O)[nH]2)cc1
MIC [1]: 12.5 µg/mL (≈ 44.4 µM)
Activity [2]: inactive
MIC [3]: 12.5 µg/mL (≈ 44.4 µM)
Activity [4]: inactive
MIC [5]: 25 µg/mL (≈ 88.9 µM)
MIC [6]: 25 µg/mL (≈ 88.9 µM)
Activity [7]: Not toxic

Cc1cc(C)c2c(n1)NC(c1ccccc1O)NC2=O (configuration not stated)
MIC [1]: 50 µg/mL (≈ 186 µM)
Activity [2]: inactive
MIC [3]: 50 µg/mL (≈ 186 µM)
Activity [4]: inactive
MIC [5]: 25 µg/mL (≈ 92.8 µM)
MIC [6]: 50 µg/mL (≈ 186 µM)
Activity [7]: Not toxic

Cc1cc(C)c2c(=O)[nH]c(-c3cc(C)c(O)c(C)c3)nc2n1
MIC [1]: 6.25 µg/mL (≈ 21.2 µM)
Activity [2]: inactive
MIC [3]: 6.25 µg/mL (≈ 21.2 µM)
Activity [4]: inactive
MIC [5]: 12.5 µg/mL (≈ 42.3 µM)
MIC [6]: 12.5 µg/mL (≈ 42.3 µM)
Activity [7]: Not toxic

Cc1cc(C)c2c(=O)[nH]c(-c3cccs3)nc2n1
MIC [1]: 12.5 µg/mL (≈ 48.6 µM)
Activity [2]: inactive
MIC [3]: 25 µg/mL (≈ 97.2 µM)
Activity [4]: inactive
MIC [5]: 12.5 µg/mL (≈ 48.6 µM)
MIC [6]: 50 µg/mL (≈ 194 µM)
Activity [7]: Not toxic

COc1ccc(C2NC(=O)c3c(C)cc(C)nc3N2)cc1 (configuration not stated)
MIC [1]: 3.25 µg/mL (≈ 11.5 µM)
Activity [2]: inactive
MIC [3]: 12.5 µg/mL (≈ 44.1 µM)
Activity [4]: inactive
MIC [5]: 6.25 µg/mL (≈ 22.1 µM)
MIC [6]: 6.25 µg/mL (≈ 22.1 µM)
Activity [7]: Not toxic

CC(=O)Oc1ccc(-c2nc3nc(C)cc(C)c3c(=O)[nH]2)cc1
MIC [1]: 25 µg/mL (≈ 80.8 µM)
Activity [2]: inactive
MIC [3]: 25 µg/mL (≈ 80.8 µM)
Activity [4]: inactive
MIC [5]: 25.5 µg/mL (≈ 82.4 µM)
MIC [6]: 50 µg/mL (≈ 162 µM)
Activity [7]: Not toxic

Cc1cc(C)c2c(n1)NC(c1cccc(C)c1C)NC2=O (configuration not stated)
MIC [1]: 12.5 µg/mL (≈ 44.4 µM)
Activity [2]: inactive
MIC [3]: 12.5 µg/mL (≈ 44.4 µM)
Activity [4]: inactive
MIC [5]: 6.25 µg/mL (≈ 22.2 µM)
MIC [6]: 25 µg/mL (≈ 88.9 µM)
Activity [7]: Not toxic

Cc1cc(C)c2c(=O)[nH]c(-c3cccc(C)c3C)nc2n1
MIC [1]: 12.5 µg/mL (≈ 44.7 µM)
Activity [2]: inactive
MIC [3]: 12.5 µg/mL (≈ 44.7 µM)
Activity [4]: inactive
MIC [5]: 12.5 µg/mL (≈ 44.7 µM)
MIC [6]: 50 µg/mL (≈ 179 µM)
Activity [7]: Not toxic

COc1ccc(C2NC(=O)c3c(C)cc(C)nc3N2)cc1OC (configuration not stated)
MIC [1]: 6.25 µg/mL (≈ 19.9 µM)
Activity [2]: inactive
MIC [3]: 3.25 µg/mL (≈ 10.4 µM)
Activity [4]: inactive
MIC [5]: 3.25 µg/mL (≈ 10.4 µM)
MIC [6]: 12.5 µg/mL (≈ 39.9 µM)
Activity [7]: Not toxic
